# Data reported in paper PMC10509167, “Identification and characterization of endo-α-, exo-α-, and exo-β-D-arabinofuranosidases degrading lipoarabinomannan and arabinogalactan of mycobacteria” (Nature Communications, 2023).
# Target: T1, EndoMA1 (MIAR_33230) (Microbacterium arabinogalactanolyticum, UniProt A0AAJ6N6D4)
# T1 construct: 53,678 Da monomer, dimer; catalytic domain plus putative CBM
# Test: X-ray crystallography ([…] Å)
# Type: binding
# Conditions: co-crystallized with A9LT; second site, putative CBM domain; possible crystal packing artifact
# T1 sequence (A0AAJ6N6D4 entry or part of it): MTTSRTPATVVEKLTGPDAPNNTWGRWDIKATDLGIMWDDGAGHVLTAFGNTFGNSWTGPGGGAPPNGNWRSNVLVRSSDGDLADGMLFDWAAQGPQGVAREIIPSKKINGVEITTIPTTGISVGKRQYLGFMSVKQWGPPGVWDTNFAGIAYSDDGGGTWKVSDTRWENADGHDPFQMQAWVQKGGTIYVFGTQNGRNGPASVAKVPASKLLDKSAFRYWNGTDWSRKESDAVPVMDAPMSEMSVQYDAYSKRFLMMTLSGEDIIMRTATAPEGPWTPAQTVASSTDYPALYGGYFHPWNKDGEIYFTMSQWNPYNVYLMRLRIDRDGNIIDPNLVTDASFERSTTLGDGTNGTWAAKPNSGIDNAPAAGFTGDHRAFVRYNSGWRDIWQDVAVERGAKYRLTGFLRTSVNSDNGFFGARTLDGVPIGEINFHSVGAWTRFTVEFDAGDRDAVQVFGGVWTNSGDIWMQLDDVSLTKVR
compound,measurement,value
OC[C@H]1O[C@H](OC[C@H]2O[C@H](OC[C@H]3O[C@H](OC[C@H]4OC(O)[C@@H](O)[C@@H]4O)[C@@H](O)[C@@H]3O)[C@@H](O)[C@@H]2O)[C@@H](O)[C@@H]1O (stereo partly shown) [A4L],X-ray crystallography (1.80 Å),The A4L molecule is bound to the shallow surface of the putative CBM domain
